Data from ChEMBL document CHEMBL1201862, “PubChem BioAssay data set” (2004).
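A five-concentration, 48-hour dose response in 96-well plates underlies each endpoint, interpolated linearly between surrounding concentrations. At the GI50, growth is halved.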 Activity calls are given as the source filed them. No stated cut-off is given here; in the data, active = GI50 up to about 1.1 µM and inactive = higher.

Legend:
Assay in all cases: DTP human tumour cell line panel, 48 h
[1] = test system: A549
[2] = test system: K562
[3] = test system: LOX IMVI
[4] = test system: M14
[5] = test system: MCF7
[6] = test system: MDA-MB-231
[7] = test system: MDA-MB-435
[8] = test system: NCI-H226
[9] = test system: NCI/ADR-RES
[10] = test system: OVCAR-3
[11] = test system: OVCAR-4
[12] = test system: OVCAR-5
[13] = test system: RPMI-8226
[14] = test system: SF-268
[15] = test system: SK-MEL-5
[16] = test system: SNB-75
[17] = test system: SR
[18] = test system: U-251
[19] = test system: UACC-62
[20] = test system: UO-31

Measured: GI50

COC(=O)c1cccc2c1Oc1ccccc1S2
inactive: [1] 75.2 µM | [2] 57.9 µM | [3] > 100 µM | [4] > 100 µM | [5] 37.2 µM | [6] 38.7 µM | [7] > 100 µM | [8] 37.4 µM | [9] 34.4 µM | [10] > 100 µM | [11] 66.4 µM | [12] 73.8 µM | [13] 61.1 µM | [14] 38.8 µM | [15] 18.9 µM | [16] 24.1 µM | [17] > 100 µM | [18] 59.6 µM | [19] > 100 µM | [20] 31.8 µM

Cn1c(=S)c2nc(SCCN3C(=O)c4ccccc4C3=O)[nH]c2n(C)c1=O
inactive: [1] > 100 µM | [2] > 100 µM | [3] > 100 µM | [4] > 100 µM | [5] 32.7 µM | [6] > 100 µM | [7] > 100 µM | [8] > 100 µM | [9] > 100 µM | [10] > 100 µM | [11] > 100 µM | [12] > 100 µM | [13] 25.5 µM | [14] > 100 µM | [15] > 100 µM | [16] > 100 µM | [17] 3.75 µM | [18] > 100 µM | [19] > 100 µM | [20] > 100 µM

Cc1ccccc1OC(C)C(=O)NN1C(=O)CSC1c1ccc(Cl)cc1 (stereo not given)
inactive: [1] 30.2 µM | [2] 23.6 µM | [3] 24.4 µM | [4] 41.5 µM | [5] 32.1 µM | [6] 26.2 µM | [7] 57.9 µM | [8] > 49.1 µM | [9] 54.3 µM | [10] 31 µM | [11] 36.4 µM | [12] 54.6 µM | [13] 26.5 µM | [14] 25.4 µM | [15] 49.9 µM | [16] 35.7 µM | [17] 5.47 µM | [18] 30 µM | [19] 58.9 µM | [20] > 100 µM

O=C(Cn1ccnc1[N+](=O)[O-])N(CCO)CCO
inactive: [1] > 250 µM | [2] > 250 µM | [3] > 1250 µM | [4] > 250 µM | [5] > 1250 µM | [6] > 250 µM | [7] > 250 µM | [8] > 250 µM | [9] > 250 µM | [10] > 250 µM | [11] > 250 µM | [12] > 250 µM | [13] 25 µM | [14] > 250 µM | [15] > 141 µM | [16] > 1250 µM | [17] > 79.1 µM | [18] > 250 µM | [19] > 250 µM | [20] > 250 µM

O=C(NCCc1ccccc1)[C@H]1CCCC[C@@H]1CCO
inactive: [1] > 100 µM | [2] > 100 µM | [3] > 100 µM | [4] > 100 µM | [5] > 100 µM | [6] > 100 µM | [7] > 100 µM | [8] > 100 µM | [9] > 100 µM | [10] > 100 µM | [11] > 100 µM | [12] > 100 µM | [13] > 100 µM | [14] > 100 µM | [15] > 100 µM | [16] > 100 µM | [17] > 100 µM | [18] > 100 µM | [19] > 100 µM | [20] > 100 µM

O=C(ON=c1c2ccccc2ccc2ccccc12)c1cc([N+](=O)[O-])cc([N+](=O)[O-])c1
inactive: [1] 49.8 µM | [2] 21.8 µM | [3] 90.2 µM | [4] > 100 µM | [5] 65 µM | [6] > 100 µM | [7] > 100 µM | [8] > 100 µM | [9] 48.4 µM | [10] 94.6 µM | [11] 38.2 µM | [12] > 100 µM | [13] 48.5 µM | [14] > 100 µM | [15] 50.5 µM | [16] 40.8 µM | [17] 35.2 µM | [18] 70.6 µM | [19] 63.4 µM | [20] 48 µM

CN1CN(c2ccccc2)C2(CCN(Cc3nc4ccccc4s3)CC2)C1=O
inactive: [1] 17.3 µM | [2] 13.8 µM | [3] 17.3 µM | [4] 13.5 µM | [5] 15.7 µM | [6] 14.1 µM | [7] 17.8 µM | [8] 16.4 µM | [9] 15.5 µM | [10] 15.7 µM | [11] 18.6 µM | [12] 17.7 µM | [13] 16 µM | [14] 20.3 µM | [15] 16.1 µM | [16] 16.7 µM | [17] 14.8 µM | [18] 16.1 µM | [19] 16 µM | [20] 14.6 µM

CCOP(=O)(C/C=C/Cn1nc(Br)c(=O)[nH]c1=O)OCC
inactive: [1] > 100 µM | [2] > 100 µM | [3] > 100 µM | [4] > 100 µM | [5] > 100 µM | [6] > 100 µM | [7] > 100 µM | [8] > 100 µM | [9] > 100 µM | [10] > 100 µM | [11] > 100 µM | [12] > 100 µM | [13] > 100 µM | [14] > 100 µM | [15] > 100 µM | [16] > 100 µM | [17] > 100 µM | [18] > 100 µM | [19] > 100 µM | [20] > 100 µM
